Measured values as given in US20100093867A1, “Method Of Treating Genetic Disease Caused By Nonsense Mutation” (priority 2006, published 2010).

Experiments:
mdx mouse [1] = assay: Effect of administration on a muscular dystrophy mouse model; assay type: in vivo; conditions: into the stomach, 4 or 400 mg/kg/day for 7 days
Experimental: The aforementioned compound 2 was studied for its effect of administration on a muscular dystrophy mouse model. An mdx mouse was used as a muscular dystrophy mouse model. The compound 2 was administered forcibly into the stomach of an mdx mouse at a dose of 4 or 400 mg/kg/day for 7 days, and then biochemical and immuno-histochemical analyses were conducted.

mdx mouse [2] = assay: Side effects in mice; assay type: in vivo; conditions: subcutaneous, 4 or 400 mg/kg/day for 14 days
Experimental: The aforementioned compound 2 was studied for side effects in mice.
The compound 2 was injected subcutaneously to an mdx mouse at a dose of 4 or 400 mg/kg/day for 14 days.

[3] = system: patients with Duchenne muscular dystrophy; conditions: Non-patent document 1; cited from earlier work
[4] = system: airway epithelium of patients with cystic fibrosis; conditions: topical administration to airway epithelium, Non-patent document 2; cited from earlier work
[5] = system: mouse models for muscular dystrophy; conditions: Patent document 1; cited from earlier work

Question: With `CC(=O)NC(CC(N)=O)C(=O)O` (stereo not drawn) [compound 2] as the compound, how does the “results compared to positive control group administered with gentamicin” value (mdx mouse [1]) read?
Answer: favorable results compared to a positive control group administered with gentamicin

Question: And the “serum creatine kinase activity” value (mdx mouse [1])?
Answer: reduced

Question: What about the “dystrophin in muscles (e.g. hind limb)” value (mdx mouse [1]; immuno-histochemical analysis) of the same compound?
Answer: accumulated

Question: What about the “body weight during the administration period” value (mdx mouse [2]) of the same compound?
Answer: no decrease

Question: And the “hearing test that measures auditory brainstem response” value (mdx mouse [2])?
Answer: no abnormal values

Question: What about the “eighteen serological and biochemical tests” value (mdx mouse [2]; total protein, albumin, AST, ALT, ALP, γ-GTP, creatinine, glucose, lipids, electrolytes, bilirubin etc.) of the same compound?
Answer: no abnormal values

Question: What does the source list for gentamicin?
Answer: dystrophin protein [3]: led to accumulation of dystrophin protein; typical electrophysiological abnormalities [4]: could correct

Question: Which dystrophin expression [5] does the source give for `CN(CC(=O)O)NC(=O)C[C@H](N)C[C@@H](O)CN` [negamycin] here?
Answer: restore a dystrophin expression
